Results from ChEMBL document CHEMBL1201862, “PubChem BioAssay data set” (2004).
Active and inactive are the calls of the source.

Assays:
Prothrombin = Prothrombin (Homo sapiens, UniProt P00734); assay: Thrombin 1536 HTS Dose Response Confirmation. [Related pubchem assays: 1046 (Thrombin 1536 HTS; hits were confirmed in this assay)]; type: functional
[1] = molecular target: T1, Calpain-2 catalytic subunit (Sus scrofa, UniProt P43367); assay: m-calpain protease blockers, concentration series – biochemical, fluorogenic peptide substrate, dose response (AID 1420); type: functional
T1 sequence (P43367 whole entry): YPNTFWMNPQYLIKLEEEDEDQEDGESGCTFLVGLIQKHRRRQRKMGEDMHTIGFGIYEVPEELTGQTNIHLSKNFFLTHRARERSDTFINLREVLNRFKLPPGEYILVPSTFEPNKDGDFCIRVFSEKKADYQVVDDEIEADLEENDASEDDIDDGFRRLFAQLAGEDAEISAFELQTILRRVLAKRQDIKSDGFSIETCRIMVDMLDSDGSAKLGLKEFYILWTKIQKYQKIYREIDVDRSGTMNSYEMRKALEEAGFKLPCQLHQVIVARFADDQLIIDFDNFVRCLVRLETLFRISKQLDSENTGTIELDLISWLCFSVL

[2] = molecular target: T2, Histone-lysine N-methyltransferase NSD2 (Homo sapiens, UniProt O96028); type: biochemical
T2 sequence (O96028 whole entry): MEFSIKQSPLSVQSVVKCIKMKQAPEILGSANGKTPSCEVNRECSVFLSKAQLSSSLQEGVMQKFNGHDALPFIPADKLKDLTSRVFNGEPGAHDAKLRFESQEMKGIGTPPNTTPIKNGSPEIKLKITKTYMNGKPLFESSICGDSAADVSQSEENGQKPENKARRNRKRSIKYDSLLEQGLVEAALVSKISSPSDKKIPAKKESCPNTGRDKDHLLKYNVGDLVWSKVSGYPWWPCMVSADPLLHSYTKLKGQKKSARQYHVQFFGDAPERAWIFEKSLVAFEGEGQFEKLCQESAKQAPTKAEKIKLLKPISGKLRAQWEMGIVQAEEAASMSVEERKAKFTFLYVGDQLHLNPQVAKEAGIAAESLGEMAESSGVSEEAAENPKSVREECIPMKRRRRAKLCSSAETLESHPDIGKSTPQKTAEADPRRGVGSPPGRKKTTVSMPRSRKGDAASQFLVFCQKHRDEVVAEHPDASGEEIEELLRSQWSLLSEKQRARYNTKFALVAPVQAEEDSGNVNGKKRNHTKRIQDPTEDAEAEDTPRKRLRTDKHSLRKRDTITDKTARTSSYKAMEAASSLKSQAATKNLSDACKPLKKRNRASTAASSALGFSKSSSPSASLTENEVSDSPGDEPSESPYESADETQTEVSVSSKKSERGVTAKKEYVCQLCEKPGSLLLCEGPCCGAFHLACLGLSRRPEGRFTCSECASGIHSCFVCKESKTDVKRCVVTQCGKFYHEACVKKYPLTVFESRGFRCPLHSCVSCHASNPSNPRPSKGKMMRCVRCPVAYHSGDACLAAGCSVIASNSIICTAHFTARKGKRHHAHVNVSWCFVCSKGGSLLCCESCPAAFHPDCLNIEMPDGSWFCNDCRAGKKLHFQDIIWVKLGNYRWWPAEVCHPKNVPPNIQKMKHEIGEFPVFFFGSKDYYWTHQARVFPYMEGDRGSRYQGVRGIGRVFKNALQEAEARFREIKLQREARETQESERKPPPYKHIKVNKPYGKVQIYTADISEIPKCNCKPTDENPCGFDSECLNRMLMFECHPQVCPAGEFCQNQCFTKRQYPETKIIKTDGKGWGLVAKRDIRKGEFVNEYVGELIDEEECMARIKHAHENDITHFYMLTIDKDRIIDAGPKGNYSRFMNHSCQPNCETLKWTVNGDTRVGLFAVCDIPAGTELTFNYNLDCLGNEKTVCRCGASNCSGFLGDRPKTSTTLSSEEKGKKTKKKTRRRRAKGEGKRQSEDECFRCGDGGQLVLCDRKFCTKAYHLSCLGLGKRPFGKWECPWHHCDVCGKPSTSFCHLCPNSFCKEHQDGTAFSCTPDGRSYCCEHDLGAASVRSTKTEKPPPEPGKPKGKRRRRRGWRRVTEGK

[3] = molecular target: T3, Mannose-6-phosphate isomerase (Homo sapiens, UniProt P34949); assay: MPI inhibition at elevated mannose 6-phosphate – biochemical, fluorescence intensity, high mannose 6-phosphate, primary screen (AID 1220)
T3 sequence (P34949 whole entry): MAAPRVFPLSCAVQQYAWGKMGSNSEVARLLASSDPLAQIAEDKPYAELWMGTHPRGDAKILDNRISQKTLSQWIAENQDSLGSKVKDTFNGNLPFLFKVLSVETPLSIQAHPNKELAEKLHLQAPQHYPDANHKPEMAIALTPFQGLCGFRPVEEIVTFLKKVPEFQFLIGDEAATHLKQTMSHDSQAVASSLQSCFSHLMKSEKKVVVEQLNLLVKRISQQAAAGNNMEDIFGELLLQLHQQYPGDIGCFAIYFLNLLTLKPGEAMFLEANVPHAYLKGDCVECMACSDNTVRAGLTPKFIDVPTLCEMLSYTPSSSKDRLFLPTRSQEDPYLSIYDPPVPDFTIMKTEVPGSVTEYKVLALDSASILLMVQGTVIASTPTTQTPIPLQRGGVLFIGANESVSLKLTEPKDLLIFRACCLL

[4] = HEK-293T viability loss after treatment – luminescence, T-cell screen hits, cytotoxicity control for TCR NF-kB inhibitor project, dose response (AID 489026); type: functional, cell-based;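 further: cells exposed to compound about 14 hours before the viability readout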
[5] = HIV-1 AD8 envelope cell-cell fusion blockers – cherry-pick, dose response (AID 652062); type: functional, cell-based;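 further: luciferase signal from cell-cell fusion driven by HIV-1 clade B AD8 Env; potency is for inhibitors of fusion seen as a drop in luminescence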
Protein Wnt-3a = Protein Wnt-3a (Mus musculus, UniProt P27467); assay: antagonism of Wnt3a pathway luciferase reporter – Wnt-LIGHT cells, luminescence, selectivity assay for Gli-SUFU antagonist project, dose response (AID 651570); type: functional; conditions: read-out: IC50_Mean;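 further: Wnt-LIGHT reporter cells stimulated with conditioned medium from Wnt3a-producing cells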
Sequence of Protein Wnt-3a (P27467 whole entry, the tested form may be a part): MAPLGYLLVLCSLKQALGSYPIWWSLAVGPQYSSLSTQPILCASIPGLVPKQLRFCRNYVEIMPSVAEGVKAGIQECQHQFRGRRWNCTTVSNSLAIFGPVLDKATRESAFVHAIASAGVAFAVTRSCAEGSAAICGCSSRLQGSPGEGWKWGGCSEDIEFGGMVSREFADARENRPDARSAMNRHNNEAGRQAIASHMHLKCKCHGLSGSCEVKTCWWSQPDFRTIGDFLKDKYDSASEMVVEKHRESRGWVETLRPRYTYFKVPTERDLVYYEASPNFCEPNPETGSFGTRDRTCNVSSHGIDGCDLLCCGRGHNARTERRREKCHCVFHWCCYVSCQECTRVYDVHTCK

[6] = blockers of HIV-1 envelope-mediated cell-cell fusion – cherry-pick, dose response (AID 652057); type: functional, cell-based
[7] = off-target signal loss in HeLa-CEM21 co-culture – HeLa F-luc CTL cells, cherry-picked, counter-screen for HIV-1 Env fusion inhibitor project, dose response (AID 652040); type: functional, cell-based;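 further: potency for signal decrease marking cytotoxic or nonspecific inhibition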
HEK293 = assay: EBV LMP1 TES2 canonical NF-kB signalling blockers – cell-based, HEK293, luciferase, cherry-pick, dose response (AID 588343); type: functional; conditions: Homo sapiens
[8] = molecular target: T4, Heat shock factor protein 1 (Mus musculus, UniProt P38532); assay: decrease of HSF1-responsive luciferase luminescence – cell-based, NIH3T3, dose retest, confirmation (AID 2382); type: functional;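 further: NIH3T3 fibroblasts with HSF1-driven luciferase reporter stressed by proteasome inhibitor MG132; luminescence from HSF1-driven luciferase expression after 8 hours of MG132 stress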
T4 sequence (P38532 whole entry): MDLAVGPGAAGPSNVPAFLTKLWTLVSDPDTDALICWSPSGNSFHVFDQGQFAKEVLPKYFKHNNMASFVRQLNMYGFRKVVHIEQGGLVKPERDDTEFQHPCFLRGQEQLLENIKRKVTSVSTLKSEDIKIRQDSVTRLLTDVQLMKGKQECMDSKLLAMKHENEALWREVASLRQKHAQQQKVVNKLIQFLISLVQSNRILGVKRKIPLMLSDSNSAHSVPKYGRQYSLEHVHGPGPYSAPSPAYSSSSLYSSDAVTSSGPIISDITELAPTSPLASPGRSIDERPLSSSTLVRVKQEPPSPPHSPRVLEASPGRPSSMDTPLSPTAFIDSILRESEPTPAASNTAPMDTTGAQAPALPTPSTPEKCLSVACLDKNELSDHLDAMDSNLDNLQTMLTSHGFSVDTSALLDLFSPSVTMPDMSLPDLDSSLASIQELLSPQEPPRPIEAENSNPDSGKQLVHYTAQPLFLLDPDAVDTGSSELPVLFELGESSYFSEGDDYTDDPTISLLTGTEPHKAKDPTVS

[9] = alpha-synuclein stem-loop luciferase translation blockers – H4 neuroglioma cells, luminescence, confirmation (AID 1988); type: functional, cell-based
[10] = luciferase reporter signal suppression in cells – H4 neuroglioma cells, luminescence, dose response (AID 1990); type: functional, cell-based
[11] = blockers of HIV-1 ZM109 envelope-driven cell-cell fusion – HeLa effector, CEM target cells, luciferase, cherry-pick, dose response (AID 652058); type: functional, cell-based;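 further: luciferase signal from HIV-1 Env mediated cell-cell fusion of effector and target cells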
[12] = Luminescence Cell-Based Dose Response HTS to Identify Inhibitors of 5'UTR Stem-Loop Driven Prion Protein mRNA Translation in H4 Neuroglioblastoma Cells. [Related pubchem assays: 1827 (Project Summary), 1813 (Primary HTS)]; type: functional
Cytochrome P450 2C19 = Cytochrome P450 2C19 (Homo sapiens, UniProt P33261); assay: Cytochrome panel assay with activity outcomes. Panel member name: p450-cyp2c19 Compounds with AC50 equal or less than 10 uM are considered active; type: functional; conditions: read-out: AC50
Sequence of Cytochrome P450 2C19 (P33261 whole entry): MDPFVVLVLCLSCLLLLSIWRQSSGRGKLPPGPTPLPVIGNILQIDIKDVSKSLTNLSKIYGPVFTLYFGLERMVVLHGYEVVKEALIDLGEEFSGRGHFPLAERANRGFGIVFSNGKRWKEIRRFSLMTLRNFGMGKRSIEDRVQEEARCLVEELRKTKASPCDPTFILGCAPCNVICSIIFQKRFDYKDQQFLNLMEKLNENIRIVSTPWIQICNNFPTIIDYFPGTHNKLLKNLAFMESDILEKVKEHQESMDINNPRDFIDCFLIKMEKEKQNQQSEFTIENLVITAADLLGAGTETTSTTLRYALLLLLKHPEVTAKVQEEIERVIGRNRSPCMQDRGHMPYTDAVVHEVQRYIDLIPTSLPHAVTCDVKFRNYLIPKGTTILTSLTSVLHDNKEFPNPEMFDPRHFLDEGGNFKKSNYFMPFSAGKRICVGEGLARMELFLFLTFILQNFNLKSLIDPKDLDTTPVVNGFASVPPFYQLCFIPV

Cytochrome P450 2C9 = Cytochrome P450 2C9 (Homo sapiens, UniProt P11712)
Sequence of Cytochrome P450 2C9 (P11712 whole entry): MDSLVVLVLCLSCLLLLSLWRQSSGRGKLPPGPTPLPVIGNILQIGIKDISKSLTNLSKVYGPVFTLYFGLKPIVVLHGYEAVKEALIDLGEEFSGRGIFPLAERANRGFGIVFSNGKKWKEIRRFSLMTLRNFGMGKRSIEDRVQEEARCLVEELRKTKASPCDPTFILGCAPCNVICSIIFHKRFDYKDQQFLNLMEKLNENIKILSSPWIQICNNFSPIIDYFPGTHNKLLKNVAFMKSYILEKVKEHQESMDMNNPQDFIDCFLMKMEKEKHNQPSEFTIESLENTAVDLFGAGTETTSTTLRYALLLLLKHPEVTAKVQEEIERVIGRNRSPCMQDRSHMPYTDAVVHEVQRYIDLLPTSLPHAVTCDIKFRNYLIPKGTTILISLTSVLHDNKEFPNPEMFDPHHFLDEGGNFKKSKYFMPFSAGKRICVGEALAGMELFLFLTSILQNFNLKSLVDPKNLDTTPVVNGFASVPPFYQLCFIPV

Leucine aminopeptidase = molecular target: T5, Leucine aminopeptidase (Plasmodium falciparum 3D7, UniProt Q8IL11); assay: P. falciparum M17LAP inhibitors, primary screen, biochemical, fluorogenic H-Leu-NHMec substrate, 1536-well (AID 1619); type: functional
T5 sequence (Q8IL11 whole entry): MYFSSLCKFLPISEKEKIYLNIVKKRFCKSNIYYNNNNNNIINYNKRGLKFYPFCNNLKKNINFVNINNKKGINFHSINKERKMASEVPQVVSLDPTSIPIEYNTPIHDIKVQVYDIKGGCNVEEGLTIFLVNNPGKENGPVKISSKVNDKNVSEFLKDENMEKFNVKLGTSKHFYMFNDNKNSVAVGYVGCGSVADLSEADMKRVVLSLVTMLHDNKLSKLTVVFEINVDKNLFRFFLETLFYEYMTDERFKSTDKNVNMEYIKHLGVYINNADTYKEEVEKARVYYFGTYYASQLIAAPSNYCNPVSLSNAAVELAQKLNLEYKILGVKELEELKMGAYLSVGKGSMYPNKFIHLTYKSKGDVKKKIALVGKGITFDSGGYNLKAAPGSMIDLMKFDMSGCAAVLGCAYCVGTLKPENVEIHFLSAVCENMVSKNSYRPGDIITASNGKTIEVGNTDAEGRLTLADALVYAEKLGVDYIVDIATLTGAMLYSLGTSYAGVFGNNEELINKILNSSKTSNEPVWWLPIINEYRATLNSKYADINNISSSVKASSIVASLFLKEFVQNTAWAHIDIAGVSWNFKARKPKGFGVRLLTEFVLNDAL

Compound	IC50 (Prothrombin)	AC50 [5]	AC50 [6]	AC50 [7]	also measured
CC(C)c1ccc(-c2noc(C3CCCN(C(=O)c4ccc(F)cc4F)C3)n2)cc1 (stereo not drawn)	> 50 µM (not active)				IC50 [1]: 9.51 µM (not active)
CC(=O)n1nc(-c2ccccc2)nc1NCc1ccc(N(C)C)cc1	3.39 µM (active)				
Cc1ccc(NC(=O)CN(C)C(=O)CCC(=O)c2cccs2)cc1	> 50 µM (not active)				
Cn1cc2ccc(N)cc2n1					AC50 [2]: 3.81 µM (active); IC50 [3]: > 50 µM (not active)
Cc1nc2ccccc2c2c1CC(C(C)(Cl)Br)O2 (stereo not drawn)		1.8 µM (active)	27.6 µM (active)	> 70 µM (inactive)	IC50 [4]: > 80 µM (inactive); IC50 (Protein Wnt-3a): 3.82 µM (active)
CSc1nc(-c2ccco2)nn1C(=O)CCc1ccccc1	0.00551 µM (active)				
O=C(CN1C(=O)CSc2ccccc21)N1CCc2ccccc21	> 50 µM (not active)				
COc1cccc(C(=O)NNC(=O)Cc2ccc([N+](=O)[O-])cc2)c1	> 50 µM (not active)				
NC(=O)c1sc2nc3c(c(-c4cccs4)c2c1N)CCCCC3		1.43 µM (active)	0.743 µM (active)	1.67 µM (active)	AC50 (HEK293): 2.27 µM (active); EC50 [8]: 285 nM (active); EC50 [9]: 11.1 µM (active); EC50 [10]: 16.5 µM (active); AC50 [11]: < 260 nM (active); EC50 [12]: 9.4 µM (active)
CC(=O)n1nc(-c2ccccc2)nc1NCc1cccs1	0.0965 µM (active)				
Cc1n[nH]c(C)c1S(=O)(=O)N(CC(=O)NC1CCCC1)c1ccc(C(C)C)cc1		3.53 µM (active)	3.91 µM (active)	6.27 µM (active)	AC50 [11]: 2380 nM (active)
O=C(c1ccc([N+](=O)[O-])cc1)n1nc(-c2ccccc2)nc1NCc1ccccc1	0.0293 µM (active)				AC50 (Cytochrome P450 2C19): 1.58 µM (inconclusive); AC50 (Cytochrome P450 2C9): 631 nM (inconclusive)
CCCCn1c(N)c(N(CC(C)C)C(=O)c2ccc(S(=O)(=O)N(CC)c3ccccc3)cc2)c(=O)[nH]c1=O		2.78 µM (active)	0.402 µM (active)	0.877 µM (active)	AC50 [11]: < 260 nM (active)
COC(=O)[C@@]1(C)[C@H]2C(=O)N(Cc3ccccc3)C(=O)[C@H]2[C@H]2CN=C(SCc3ccc(Cl)cc3)N21		0.796 µM (active)	0.876 µM (active)	1.04 µM (active)	AC50 (HEK293): 4.73 µM (active); AC50 [11]: 891 nM (active)
COc1cccc(/C=N/NC(=O)CC2C(=O)NN=C2C)c1O (stereo not drawn)			49.9 µM (active)	> 70 µM (inactive)	IC50 (Leucine aminopeptidase): 92.1 µM (active)
